We go through 3 compounds from ChEMBL document CHEMBL5625233, “Exploring positions 6 and 7 of a quinazoline-based scaffold leads to changes in selectivity and potency towards RIPK2/3 kinases” (Eur J Med Chem, 2023).

In general, IC50 refers to the point on the concentration scale where inhibition reaches its midpoint. As a reminder, the inhibition is the drop in the measured response relative to a control, in per cent.

A short description of data set [1]: Metabolic stability in human liver microsomes assessed as compound remaining at 10 uM incubated for 45 mins by ECHO-MS analysis. In kind it is ADME, Microsome. The following applies: microsomes, 0.75 h, 10 µM. A general note: Liver microsomes are vesicles of endoplasmic reticulum, rich in cytochrome P450 enzymes.
In data set [2] the target is T1, Receptor-interacting serine/threonine-protein kinase 4 (Homo sapiens, UniProt P57078).
T1 sequence (P57078 whole entry): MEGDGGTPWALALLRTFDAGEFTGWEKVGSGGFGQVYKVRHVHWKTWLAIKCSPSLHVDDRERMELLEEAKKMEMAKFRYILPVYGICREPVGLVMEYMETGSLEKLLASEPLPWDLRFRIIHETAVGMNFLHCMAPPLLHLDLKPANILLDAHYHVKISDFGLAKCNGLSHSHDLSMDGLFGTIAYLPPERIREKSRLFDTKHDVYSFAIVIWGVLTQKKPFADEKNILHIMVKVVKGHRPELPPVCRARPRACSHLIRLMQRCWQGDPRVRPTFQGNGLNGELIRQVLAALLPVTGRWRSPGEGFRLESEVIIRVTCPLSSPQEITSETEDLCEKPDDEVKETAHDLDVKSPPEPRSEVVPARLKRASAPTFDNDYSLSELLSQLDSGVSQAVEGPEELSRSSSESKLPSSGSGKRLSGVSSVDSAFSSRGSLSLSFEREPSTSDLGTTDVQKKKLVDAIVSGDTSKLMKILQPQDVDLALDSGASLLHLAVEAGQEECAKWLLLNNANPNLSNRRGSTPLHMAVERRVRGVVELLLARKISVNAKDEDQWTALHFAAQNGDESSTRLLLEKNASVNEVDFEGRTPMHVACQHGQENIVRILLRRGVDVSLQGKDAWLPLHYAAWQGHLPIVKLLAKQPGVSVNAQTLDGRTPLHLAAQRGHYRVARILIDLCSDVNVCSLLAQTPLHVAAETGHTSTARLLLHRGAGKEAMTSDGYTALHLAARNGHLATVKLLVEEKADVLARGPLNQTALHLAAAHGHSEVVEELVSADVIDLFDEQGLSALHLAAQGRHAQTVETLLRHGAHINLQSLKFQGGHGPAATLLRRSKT
Put plainly: Inhibition of N-terminal polyHis-tagged human RIPK4 (1 to 321 residues) expressed in Sf9 cells using MBP as substrate preincubated for 15 mins followed by ATP addition measured after 90 mins by ADP-Glo assay.

The target in data set [3] is Tyrosine-protein kinase ABL1 (Homo sapiens) (UniProt P00519). Put plainly: Inhibition of human ABL relative to control. The following applies: concentration not given here.
In data set [4] the target is Tyrosine-protein kinase Lyn (Homo sapiens) (UniProt P07948). Put plainly: Inhibition of human LYN relative to control. As to conditions: concentration not given here.
The target of data set [5] is Vascular endothelial growth factor receptor 2 (Homo sapiens) (UniProt P35968). Put plainly: Inhibition of human KDR relative to control. More on the design: concentration or dose not given beside the values. As to conditions: concentration not given here.
In data set [6] the target is Epidermal growth factor receptor (Homo sapiens) (UniProt P00533). As to the kind of experiment: Inhibition of human EGFR relative to control. As to conditions: concentration not given here.
The target in data set [7] is T2, Receptor-interacting serine/threonine-protein kinase 2 (Homo sapiens, UniProt O43353). As to the kind of experiment: Inhibition of RIPK2-mediated NF-kappaB signalling in C14-TriLAN-Gly-treated human THP-1 cells preincubated for 30 mins followed by C14-TriLAN-Gly addition measured after 24 hrs by luminescence based assay. In kind it is cell-based.
Data set [8] concerns the target T3, Receptor-interacting serine/threonine-protein kinase 1 (Homo sapiens, UniProt Q13546).
T3 sequence (Q13546 whole entry): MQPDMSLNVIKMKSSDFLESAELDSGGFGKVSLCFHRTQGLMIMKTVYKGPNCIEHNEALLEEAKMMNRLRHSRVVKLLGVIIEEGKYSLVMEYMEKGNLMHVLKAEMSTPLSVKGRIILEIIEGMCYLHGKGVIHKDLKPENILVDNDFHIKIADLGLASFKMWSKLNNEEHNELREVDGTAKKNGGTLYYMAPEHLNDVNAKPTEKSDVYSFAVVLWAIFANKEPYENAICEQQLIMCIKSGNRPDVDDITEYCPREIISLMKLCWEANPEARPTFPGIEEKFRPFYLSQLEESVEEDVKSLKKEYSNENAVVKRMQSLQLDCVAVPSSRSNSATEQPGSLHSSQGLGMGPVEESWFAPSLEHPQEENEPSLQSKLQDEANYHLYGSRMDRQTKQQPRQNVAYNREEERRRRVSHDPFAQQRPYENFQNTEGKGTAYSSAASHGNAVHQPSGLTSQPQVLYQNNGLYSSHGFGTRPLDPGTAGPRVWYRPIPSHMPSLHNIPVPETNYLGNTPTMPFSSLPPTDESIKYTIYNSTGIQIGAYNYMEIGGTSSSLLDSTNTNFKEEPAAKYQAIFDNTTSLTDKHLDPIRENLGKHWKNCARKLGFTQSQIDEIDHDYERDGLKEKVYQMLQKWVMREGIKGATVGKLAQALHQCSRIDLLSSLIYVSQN
As to the kind of experiment: Inhibition of N-terminal polyHis-tagged human RIPK1 (1 to 321 residues) expressed in Sf9 cells using MBP as substrate preincubated for 15 mins followed by ATP addition measured after 90 mins by ADP-Glo assay. On the technique in general: In ADP-Glo the light output rises with the ADP produced.

The target of data set [9] is Tyrosine-protein kinase Fyn (Homo sapiens) (UniProt P06241). As to the kind of experiment: Inhibition of human FYN relative to control. As to conditions: concentration not given here.
Data set [10] in a line: Metabolic stability in mouse liver microsomes assessed as compound remaining at 10 uM incubated for 45 mins by ECHO-MS analysis. In kind it is ADME, Microsome. As to conditions: read-out: Stability.
Data set [11] has as its target T2, Receptor-interacting serine/threonine-protein kinase 2. As to the kind of experiment: Inhibition of RIPK2-mediated NF-kappaB signalling in MDP-treated human THP-1 cells preincubated for 30 mins followed by MDP addition measured after 24 hrs by luminescence based assay. In kind it is cell-based.
For data set [12], the target named is Serine/threonine-protein kinase 10 (Homo sapiens) (UniProt O94804). Put plainly: Inhibition of human LOK relative to control. The following applies: concentration not given here.
The target in data set [13] is T2, Receptor-interacting serine/threonine-protein kinase 2. As to the kind of experiment: Inhibition of N-terminal polyHis-tagged human RIPK2 (8 to 310 residues) expressed in Sf9 cells using MBP as substrate preincubated for 15 mins followed by ATP addition measured after 90 mins by ADP-Glo assay.
The nature of data set [14]: Metabolic stability in human plasma assessed as compound remaining at 5 uM incubated for 120 mins by ECHO-MS analysis. It is filed as ADME, cell-free. The following applies: read-out: Stability.
The target of data set [15] is Receptor-interacting serine/threonine-protein kinase 3 (Homo sapiens, UniProt Q9Y572). Put plainly: Inhibition of N-terminal polyHis-tagged human RIPK3 (1 to 307 residues) expressed in Sf9 cells using MBP as substrate preincubated for 15 mins followed by ATP addition measured after 90 mins by ADP-Glo assay.
Data set [16] is described as follows: Metabolic stability in mouse plasma assessed as compound remaining at 5 uM incubated for 120 mins by ECHO-MS analysis. It is filed as ADME, cell-free. The following applies: read-out: Stability.
In data set [17] the target is MAP kinase-interacting serine/threonine-protein kinase 2 (Homo sapiens) (UniProt Q9HBH9). Put plainly: Inhibition of human MNK2 relative to control. The following applies: concentration not given here.
The next data set has as its system HT-29. As to the kind of experiment: Cytotoxicity against human HT-29 cells assessed as cell viability at 10 uM incubated for 24 hrs by Cell Titer Glo assay. In kind it is toxicity, cell-based. The following applies: ht-29, 24 h.

Receptor-interacting serine/threonine-protein kinase 3, sequence (Q9Y572 whole entry, the tested form may be a part): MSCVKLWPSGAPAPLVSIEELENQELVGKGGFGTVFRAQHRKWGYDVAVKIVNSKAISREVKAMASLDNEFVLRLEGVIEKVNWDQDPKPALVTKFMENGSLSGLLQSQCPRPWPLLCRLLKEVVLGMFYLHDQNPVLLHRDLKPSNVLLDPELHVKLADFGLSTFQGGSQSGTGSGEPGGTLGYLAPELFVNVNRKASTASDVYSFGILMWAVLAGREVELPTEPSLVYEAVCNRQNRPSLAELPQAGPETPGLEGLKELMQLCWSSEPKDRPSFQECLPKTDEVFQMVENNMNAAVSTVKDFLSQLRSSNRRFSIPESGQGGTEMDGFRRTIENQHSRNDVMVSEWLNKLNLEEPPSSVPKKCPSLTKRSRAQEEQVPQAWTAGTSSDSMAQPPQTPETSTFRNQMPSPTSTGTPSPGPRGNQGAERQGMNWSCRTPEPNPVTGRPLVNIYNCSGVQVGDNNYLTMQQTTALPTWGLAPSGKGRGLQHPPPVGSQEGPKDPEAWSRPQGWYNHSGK
Vascular endothelial growth factor receptor 2 (Homo sapiens), sequence (P35968 whole entry): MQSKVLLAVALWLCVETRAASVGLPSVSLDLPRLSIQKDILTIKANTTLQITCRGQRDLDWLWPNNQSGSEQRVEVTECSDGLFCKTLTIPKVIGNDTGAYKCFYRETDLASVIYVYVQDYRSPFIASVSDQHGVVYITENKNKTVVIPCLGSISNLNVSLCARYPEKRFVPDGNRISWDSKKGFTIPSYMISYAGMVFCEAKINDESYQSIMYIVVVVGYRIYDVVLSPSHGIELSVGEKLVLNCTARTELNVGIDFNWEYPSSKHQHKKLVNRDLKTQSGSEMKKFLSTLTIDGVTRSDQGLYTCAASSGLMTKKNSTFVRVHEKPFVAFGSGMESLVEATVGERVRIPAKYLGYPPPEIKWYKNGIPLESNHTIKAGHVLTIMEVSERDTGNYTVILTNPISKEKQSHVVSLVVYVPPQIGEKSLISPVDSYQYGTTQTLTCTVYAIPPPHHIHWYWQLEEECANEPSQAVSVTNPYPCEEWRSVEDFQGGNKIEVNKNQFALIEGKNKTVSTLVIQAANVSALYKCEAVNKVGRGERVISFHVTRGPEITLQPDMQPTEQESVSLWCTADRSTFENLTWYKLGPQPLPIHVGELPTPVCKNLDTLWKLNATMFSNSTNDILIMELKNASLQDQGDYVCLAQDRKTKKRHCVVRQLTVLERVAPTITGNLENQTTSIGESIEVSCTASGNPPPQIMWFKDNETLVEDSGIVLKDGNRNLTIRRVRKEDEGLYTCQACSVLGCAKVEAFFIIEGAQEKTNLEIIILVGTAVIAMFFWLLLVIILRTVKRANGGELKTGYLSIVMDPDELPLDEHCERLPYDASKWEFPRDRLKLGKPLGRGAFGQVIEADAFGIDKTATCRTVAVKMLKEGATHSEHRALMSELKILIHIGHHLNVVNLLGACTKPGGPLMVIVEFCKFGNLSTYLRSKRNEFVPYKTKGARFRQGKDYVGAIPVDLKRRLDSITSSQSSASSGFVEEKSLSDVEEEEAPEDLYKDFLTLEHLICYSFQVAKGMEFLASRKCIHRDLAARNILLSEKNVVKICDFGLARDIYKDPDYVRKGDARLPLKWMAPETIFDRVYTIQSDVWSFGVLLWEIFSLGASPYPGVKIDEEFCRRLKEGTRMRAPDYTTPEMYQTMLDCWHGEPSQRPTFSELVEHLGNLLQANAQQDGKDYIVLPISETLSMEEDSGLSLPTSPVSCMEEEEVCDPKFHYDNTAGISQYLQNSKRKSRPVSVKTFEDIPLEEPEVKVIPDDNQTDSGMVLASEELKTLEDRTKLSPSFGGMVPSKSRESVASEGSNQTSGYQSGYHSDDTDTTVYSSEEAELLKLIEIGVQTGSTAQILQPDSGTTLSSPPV
T2 sequence (O43353 whole entry): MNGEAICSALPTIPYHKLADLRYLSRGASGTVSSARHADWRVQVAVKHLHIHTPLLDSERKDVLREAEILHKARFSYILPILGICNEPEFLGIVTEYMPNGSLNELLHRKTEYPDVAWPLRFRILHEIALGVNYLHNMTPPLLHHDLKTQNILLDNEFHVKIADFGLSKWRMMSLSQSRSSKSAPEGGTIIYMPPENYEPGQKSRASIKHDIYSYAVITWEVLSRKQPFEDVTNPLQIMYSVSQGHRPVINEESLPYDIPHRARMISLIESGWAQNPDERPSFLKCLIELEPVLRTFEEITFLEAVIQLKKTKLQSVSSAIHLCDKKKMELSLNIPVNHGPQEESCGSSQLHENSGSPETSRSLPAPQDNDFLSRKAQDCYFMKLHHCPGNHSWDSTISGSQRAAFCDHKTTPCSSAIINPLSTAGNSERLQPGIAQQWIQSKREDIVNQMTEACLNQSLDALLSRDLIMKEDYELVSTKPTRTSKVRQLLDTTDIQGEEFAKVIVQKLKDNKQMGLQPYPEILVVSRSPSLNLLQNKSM
Serine/threonine-protein kinase 10 (Homo sapiens), sequence (O94804 whole entry, looked up, the tested form may be a part): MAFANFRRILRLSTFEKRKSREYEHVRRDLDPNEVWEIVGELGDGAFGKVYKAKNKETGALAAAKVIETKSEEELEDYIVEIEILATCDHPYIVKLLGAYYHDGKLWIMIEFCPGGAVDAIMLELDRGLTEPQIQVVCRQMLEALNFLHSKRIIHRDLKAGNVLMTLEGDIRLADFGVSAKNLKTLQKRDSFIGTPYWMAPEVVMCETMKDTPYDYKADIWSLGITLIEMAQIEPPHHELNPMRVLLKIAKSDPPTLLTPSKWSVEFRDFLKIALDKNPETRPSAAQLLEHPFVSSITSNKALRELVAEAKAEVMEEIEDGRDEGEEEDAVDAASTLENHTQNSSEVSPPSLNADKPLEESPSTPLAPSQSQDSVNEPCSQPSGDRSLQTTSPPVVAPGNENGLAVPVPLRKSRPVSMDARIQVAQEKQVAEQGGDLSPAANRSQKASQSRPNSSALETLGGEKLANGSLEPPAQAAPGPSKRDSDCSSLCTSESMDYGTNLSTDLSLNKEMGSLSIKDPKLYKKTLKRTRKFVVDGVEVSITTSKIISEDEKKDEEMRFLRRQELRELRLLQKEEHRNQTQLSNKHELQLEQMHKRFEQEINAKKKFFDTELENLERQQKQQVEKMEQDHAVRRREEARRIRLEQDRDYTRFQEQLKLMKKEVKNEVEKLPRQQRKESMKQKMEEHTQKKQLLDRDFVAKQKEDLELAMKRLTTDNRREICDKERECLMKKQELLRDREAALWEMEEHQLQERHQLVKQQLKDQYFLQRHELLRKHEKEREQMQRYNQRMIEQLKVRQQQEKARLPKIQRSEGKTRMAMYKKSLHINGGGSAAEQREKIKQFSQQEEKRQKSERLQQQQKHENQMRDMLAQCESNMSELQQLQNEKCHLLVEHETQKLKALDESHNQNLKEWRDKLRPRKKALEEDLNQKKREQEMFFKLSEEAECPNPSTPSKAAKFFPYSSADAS
Epidermal growth factor receptor (Homo sapiens), sequence (P00533 whole entry): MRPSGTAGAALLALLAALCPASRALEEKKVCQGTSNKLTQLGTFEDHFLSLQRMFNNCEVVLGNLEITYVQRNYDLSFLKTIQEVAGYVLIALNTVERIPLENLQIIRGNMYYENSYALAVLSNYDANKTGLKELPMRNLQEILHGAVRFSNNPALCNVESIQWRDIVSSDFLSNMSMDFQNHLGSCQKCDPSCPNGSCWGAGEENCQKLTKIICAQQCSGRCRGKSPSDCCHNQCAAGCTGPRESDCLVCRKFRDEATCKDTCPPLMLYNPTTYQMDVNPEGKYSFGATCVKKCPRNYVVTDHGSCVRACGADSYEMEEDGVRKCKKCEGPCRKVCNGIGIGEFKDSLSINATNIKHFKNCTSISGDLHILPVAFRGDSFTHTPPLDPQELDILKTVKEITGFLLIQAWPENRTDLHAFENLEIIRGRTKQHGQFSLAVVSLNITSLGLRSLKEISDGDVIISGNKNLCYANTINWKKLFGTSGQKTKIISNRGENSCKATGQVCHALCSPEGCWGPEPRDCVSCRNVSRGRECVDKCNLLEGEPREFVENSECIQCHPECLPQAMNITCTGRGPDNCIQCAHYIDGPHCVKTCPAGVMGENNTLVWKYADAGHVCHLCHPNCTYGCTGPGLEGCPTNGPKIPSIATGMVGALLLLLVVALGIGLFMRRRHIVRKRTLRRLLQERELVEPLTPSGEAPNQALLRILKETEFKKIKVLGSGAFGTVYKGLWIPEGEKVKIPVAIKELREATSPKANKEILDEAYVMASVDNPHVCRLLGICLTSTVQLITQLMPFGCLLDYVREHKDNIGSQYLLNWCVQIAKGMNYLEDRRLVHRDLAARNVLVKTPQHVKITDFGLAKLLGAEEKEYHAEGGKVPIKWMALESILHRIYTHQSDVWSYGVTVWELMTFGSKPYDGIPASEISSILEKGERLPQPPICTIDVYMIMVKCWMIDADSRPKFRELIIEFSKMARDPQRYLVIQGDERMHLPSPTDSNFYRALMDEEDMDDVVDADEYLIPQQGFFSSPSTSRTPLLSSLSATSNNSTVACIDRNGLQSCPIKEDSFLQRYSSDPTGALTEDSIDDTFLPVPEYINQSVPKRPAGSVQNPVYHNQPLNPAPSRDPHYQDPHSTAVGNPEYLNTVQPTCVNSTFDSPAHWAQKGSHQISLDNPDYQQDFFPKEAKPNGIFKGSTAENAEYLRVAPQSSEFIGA
Tyrosine-protein kinase Lyn (Homo sapiens), sequence (P07948 2-512 limits assumed): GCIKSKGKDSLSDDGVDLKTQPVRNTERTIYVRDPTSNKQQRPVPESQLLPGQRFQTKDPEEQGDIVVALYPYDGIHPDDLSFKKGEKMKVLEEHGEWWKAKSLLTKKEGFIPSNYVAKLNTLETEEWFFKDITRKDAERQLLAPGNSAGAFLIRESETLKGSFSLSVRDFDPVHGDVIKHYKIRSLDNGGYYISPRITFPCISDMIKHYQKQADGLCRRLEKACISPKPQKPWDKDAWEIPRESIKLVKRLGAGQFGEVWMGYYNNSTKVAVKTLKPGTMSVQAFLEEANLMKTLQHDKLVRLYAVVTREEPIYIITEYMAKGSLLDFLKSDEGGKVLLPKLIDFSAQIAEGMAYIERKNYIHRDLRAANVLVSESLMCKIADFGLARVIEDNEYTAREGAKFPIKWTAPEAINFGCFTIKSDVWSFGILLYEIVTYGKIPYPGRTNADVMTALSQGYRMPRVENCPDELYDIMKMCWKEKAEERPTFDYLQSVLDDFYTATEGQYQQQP

Take `OCc1ccc(-c2cc3ncnc(Nc4ccc5scnc5c4)c3cc2-c2cccs2)o1`: the Stability in data set [1] was determined as 124%. The IC50 is over 50000 nM in data set [2]; 14 nM in data set [7]; over 50000 nM in data set [8]; 27 nM in [11]; 3 nM in [13]; 117 nM in [15]. In addition, the inhibition in [3] was determined as 70%; in data set [4] it was 94%; in [5], 94%; in data set [6], 79%; in data set [9], 94%; in [12], 83%. Moreover, the remaining at 0.75 h, 10 µM in [10] worked out at 114%. Moreover, the values for the remaining at 2 h, 5 µM in data set [14] and in data set [16] were 108% and 107%, respectively.
As to `c1csc(-c2ccc3ncnc(Nc4ccc5scnc5c4)c3c2)c1`, the IC50 in [2] is over 50000 nM; in data set [7] it was 106 nM; in data set [8], over 50000 nM; in [11], 120 nM; in [13], 4 nM; in data set [15] it was 398 nM. In addition, the inhibition amounted to 69% in data set [5]; 54% in data set [6]; 54% in data set [17]; 71% in data set [9]; 50% in data set [12].
Consider `Cn1cccc1-c1cc2c(Nc3ccc4scnc4c3)ncnc2cc1-c1cccc(CO)c1`, for which the Stability in data set [1] is reported as 124%. Moreover, the IC50 in data set [2] was over 50000 nM; in data set [7] it was 119 nM; in [8], over 50000 nM; in [11], 95 nM; in data set [13], 5 nM; in data set [15], 141 nM. This compound also came in with an inhibition in data set [5] of 74%. Besides, the Activity result in the data set on HT-29 is “Toxic”. In data set [10], the remaining at 0.75 h, 10 µM was determined as 93%. The remaining at 2 h, 5 µM in data set [14] is 112%; in [16], 119%.
